Assay results published in patent US12637471B2, “Heterocyclic compounds, compositions, methods of preparation and uses thereof” (Organon R&D Finland Ltd, priority 2021, dated 2026).

Experiments:
Format in all cases: biochemical
[1] = target: T1, Recombinant human aldo-keto reductase family 1 member C2 (AKR1C2) protein (Homo sapiens, UniProt P52895); test: Inhibition of the aldo-keto reductase family 1 member C2, 3H-dihydrotestosterone conversion; details: inhibitor at 10 μM
T1 construct: made in house; host or cells: Sf-9 insect cells (baculovirus)
T1 sequence (P52895 1-323): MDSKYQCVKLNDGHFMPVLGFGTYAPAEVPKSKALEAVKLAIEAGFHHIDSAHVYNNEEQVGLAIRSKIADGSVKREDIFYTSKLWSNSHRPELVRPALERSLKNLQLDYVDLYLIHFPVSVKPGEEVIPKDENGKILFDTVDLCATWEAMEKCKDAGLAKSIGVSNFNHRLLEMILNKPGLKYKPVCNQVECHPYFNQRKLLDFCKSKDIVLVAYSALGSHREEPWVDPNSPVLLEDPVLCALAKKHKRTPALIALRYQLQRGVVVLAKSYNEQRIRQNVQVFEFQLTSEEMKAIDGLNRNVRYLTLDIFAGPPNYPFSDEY
Outline: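 Single-point screen at 10 μM inhibitor, 1% DMSO: [3H]DHT (6.25 nM) reduction to 3α-diol by baculovirus-made AKR1C2 (13.6 nM), pH 7.4 phosphate buffer, 1 mM NADPH, 37 °C for 45 min. Radio-UPLC quantified product versus substrate to give percent inhibition.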

[2] = target: T2, 17β-Hydroxysteroid Dehydrogenase Type 2 Enzyme (17β-HSD2) (Homo sapiens, UniProt P37059); test: Inhibition of the 17β-hydroxysteroid dehydrogenase type 2 enzyme, 3H-testosterone conversion; details: inhibitor at 10 μM
T2 construct: made in house; host or cells: Sf-9 insect cells (baculovirus)
T2 sequence (P37059 1-387): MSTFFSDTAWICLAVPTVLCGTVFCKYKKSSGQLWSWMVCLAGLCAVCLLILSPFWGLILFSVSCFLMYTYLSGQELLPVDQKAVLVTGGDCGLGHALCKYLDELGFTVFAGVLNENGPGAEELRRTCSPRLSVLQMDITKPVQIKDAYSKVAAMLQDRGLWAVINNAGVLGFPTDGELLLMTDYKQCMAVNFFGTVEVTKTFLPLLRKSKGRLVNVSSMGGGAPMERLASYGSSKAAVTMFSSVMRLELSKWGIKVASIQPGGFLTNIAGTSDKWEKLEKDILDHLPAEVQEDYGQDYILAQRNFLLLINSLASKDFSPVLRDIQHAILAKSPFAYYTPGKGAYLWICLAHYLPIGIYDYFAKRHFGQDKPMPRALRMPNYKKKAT
Outline: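 Single-point screen at 10 μM inhibitor, 1% DMSO: Sf-9-expressed human enzyme (105 nM), NAD 1 mM, ³H-labelled testosterone 56.25 nM, pH 8.5 phosphate/EDTA buffer, 30 min, room temperature. After TCA quench, substrate and product radioactivity quantified by UPLC with scintillation detection; inhibition percent from conversion.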

[3] = target: T3, Recombinant human AKR1C3 (17β-HSD5) protein (Homo sapiens, UniProt P42330); test: Inhibition of AKR1C3 (17β-hydroxysteroid dehydrogenase type 5) enzyme, fluorescence assay; details: inhibitor at 500 nM
T3 construct: made in house; host or cells: E. coli
T3 sequence (P42330 1-323): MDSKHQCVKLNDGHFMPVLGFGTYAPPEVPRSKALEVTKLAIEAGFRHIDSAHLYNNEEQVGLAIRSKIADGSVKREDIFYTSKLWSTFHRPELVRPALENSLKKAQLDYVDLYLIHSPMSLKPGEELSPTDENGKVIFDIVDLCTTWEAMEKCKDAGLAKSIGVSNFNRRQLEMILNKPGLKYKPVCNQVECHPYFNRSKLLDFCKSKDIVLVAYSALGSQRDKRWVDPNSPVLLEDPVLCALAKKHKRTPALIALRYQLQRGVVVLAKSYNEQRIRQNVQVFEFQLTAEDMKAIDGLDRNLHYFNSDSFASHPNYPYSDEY
Outline: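 Percent inhibition at 500 nM compound, derived from substrate conversion; product alcohol measured by fluorescence (ex 420, em 510 nm) against a 1 μM–10 nM standard curve. Reaction: 27 nM recombinant AKR1C3, 1 μM ketone substrate, 1 mM NADPH, phosphate/EDTA buffer pH 7.4, 1% DMSO, RT for 60–120 min.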

| Compound | inhibition at 10 µM [1] [%] | inhibition at 10 µM [2] [%] | inhibition at 0.5 µM [3] [%] |
| --- | --- | --- | --- |
| N#CC(=C1CCN(C(=O)N2Cc3ccccc3C2)CC1)c1ccc(F)cc1 [Compound 11, 2-(4-fluorophenyl)-2-(1-(isoindoline-2-carbonyl)piperidin-4-ylidene)acetonitrile] | 17 | 24 | 96 |
| Cn1ncc2cccc(C(C#N)=C3CCN(C(=O)N4CCn5cncc5C4)CC3)c21 [Compound 59, 2-(1-methyl-1H-indazol-7-yl)-2-(1-(5,6,7,8-tetrahydroimidazo[1,5-a]pyrazine-7-carbonyl)piperidin-4-ylidene)acetonitrile] | 5 | 22 | 98 |
| N#CC(=C1CCN(C(=O)N2CCC(CO)CC2)CC1)c1ccc(Cl)cn1 [Compound 65, 2-(5-chloropyridin-2-yl)-2-(1-(4-(hydroxymethyl)piperidine-1-carbonyl)piperidin-4-ylidene)acetonitrile] | 2 | 2 | 97 |
| N#CC(=C1CCN(C(=O)N2CCc3nocc3C2)CC1)c1ccc(F)cn1 [Compound 84, 2-(5-fluoropyridin-2-yl)-2-(1-(4,5,6,7-tetrahydroisoxazolo[4,3-c]pyridine-5-carbonyl)piperidin-4-ylidene)acetonitrile] | 6 | 23 | 98 |
| N#CC(=C1CCN(C(=O)N2CCn3ncnc3C2)CC1)c1cccc(Cl)c1 [Compound 157, 2-(3-chlorophenyl)-2-(1-(5,6,7,8-tetrahydro-[1,2,4]triazolo[1,5-a]pyrazine-7-carbonyl)piperidin-4-ylidene)acetonitrile] | 2 | 8 | 99 |
| N#CC(=C1CCN(C(=O)N2CCC(O)CC2)CC1)c1ccc(Cl)cc1 [Compound 18, 2-(4-chlorophenyl)-2-(1-(4-hydroxypiperidine-1-carbonyl)piperidin-4-ylidene)acetonitrile] | 7 | 11 | 99 |
| CC(=O)N1CCN(C(=O)N2CCC(=C(C#N)c3ccc(F)cc3)CC2)CC1 [Compound 143, 2-(1-(4-acetylpiperazine-1-carbonyl)piperidin-4-ylidene)-2-(4-fluorophenyl)acetonitrile] | 9 | 7 | 93 |
| CN(C(=O)N1CCC(=C(C#N)c2ccc(F)cc2)CC1)C1CCOCC1 [Compound 14, 4-(cyano(4-fluorophenyl)methylene)-N-methyl-N-(tetrahydro-2H-pyran-4-yl)piperidine-1-carboxamide] | 11 | 3 | 94 |
| N#CC(=C1CCN(C(=O)N2CCc3nocc3C2)CC1)c1ccc(F)cc1F [Compound 38, 2-(2,4-difluorophenyl)-2-(1-(4,5,6,7-tetrahydroisoxazolo[4,3-c]pyridine-5-carbonyl)piperidin-4-ylidene)acetonitrile] | 30 | 27 | 97 |
| CCN(CC)C(=O)N1CCC(=C(C#N)c2ccc(OC(F)(F)F)cc2)CC1 [Compound 170, 4-(cyano(4-(trifluoromethoxy)phenyl)methylene)-N,N-diethylpiperidine-1-carboxamide] | 4 | 28 | 98 |
| N#CC(=C1CCN(C(=O)N2CCc3sccc3C2)CC1)c1ccc(F)cc1 [Compound 108, 2-(4-fluorophenyl)-2-(1-(4,5,6,7-tetrahydrothieno[3,2-c]pyridine-5-carbonyl)piperidin-4-ylidene)acetonitrile] | 21 | -11 | 98 |
| N#CC(=C1CCN(C(=O)N2CCc3sccc3C2)CC1)c1cc(F)cc(F)c1 [Compound 51, 2-(3,5-difluorophenyl)-2-(1-(4,5,6,7-tetrahydrothieno[3,2-c]pyridine-5-carbonyl)piperidin-4-ylidene)acetonitrile] | 18 | 26 | 96 |
| COCC1CCN(C(=O)N2CCC(=C(C#N)c3ccc(Cl)s3)CC2)CC1 [Compound 75, 2-(5-chlorothiophen-2-yl)-2-(1-(4-(methoxymethyl)piperidine-1-carbonyl)piperidin-4-ylidene)acetonitrile] | 13 | 23 | 94 |
| N#CC(=C1CCN(C(=O)N2CCc3sccc3C2)CC1)c1ccc(F)cc1F [Compound 112, 2-(2,4-difluorophenyl)-2-(1-(4,5,6,7-tetrahydrothieno[3,2-c]pyridine-5-carbonyl)piperidin-4-ylidene)acetonitrile] | 30 | 17 | 96 |
| N#CC(=C1CCN(C(=O)N2CCn3ncnc3C2)CC1)c1ccc(OC(F)(F)F)cc1 [Compound 167, 2-(1-(5,6,7,8-tetrahydro-[1,2,4]triazolo[1,5-a]pyrazine-7-carbonyl)piperidin-4-ylidene)-2-(4-(trifluoromethoxy)phenyl)acetonitrile] | 7 | -1 | 97 |
| N#CC(=C1CCN(C(=O)N2CCc3nocc3C2)CC1)c1ccc(F)cc1 [Compound 12, 2-(4-fluorophenyl)-2-(1-(4,5,6,7-tetrahydroisoxazolo[4,3-c]pyridine-5-carbonyl)piperidin-4-ylidene)acetonitrile] | 19 | 8 | 99 |
| N#CC(=C1CCN(C(=O)N2CC(C#N)C2)CC1)c1ccc(F)cc1F [Compound 40, 1-(4-(cyano(2,4-difluorophenyl)methylene)piperidine-1-carbonyl)azetidine-3-carbonitrile] | 14 | 5 | 95 |
| N#CC(=C1CCN(C(=O)N2CCOCC2)CC1)c1ccc(Cl)cc1 [Compound 2, 2-(4-chlorophenyl)-2-(1-(morpholine-4-carbonyl)piperidin-4-ylidene)acetonitrile] | 4 | 3 | 99 |
| CC(=O)N1CCN(C(=O)N2CCC(=C(C#N)c3cccc(Cl)c3)CC2)CC1 [Compound 96, 2-(1-(4-acetylpiperazine-1-carbonyl)piperidin-4-ylidene)-2-(3-chlorophenyl)acetonitrile] | 13 | 11 | 95 |
| N#CC(=C1CCN(C(=O)N2CCn3cncc3C2)CC1)c1ccc(F)cc1 [Compound 27, 2-(4-fluorophenyl)-2-(1-(5,6,7,8-tetrahydroimidazo[1,5-a]pyrazine-7-carbonyl)piperidin-4-ylidene)acetonitrile] | 16 | 7 | 98 |
| N#CC(=C1CCN(C(=O)N2CCn3cncc3C2)CC1)c1ccc(Cl)cc1 [Compound 46, 2-(4-chlorophenyl)-2-(1-(5,6,7,8-tetrahydroimidazo[1,5-a]pyrazine-7-carbonyl)piperidin-4-ylidene)acetonitrile] | 8 | 11 | 102 |
